Measured values: patent publication US20260008746A1, “CATIONIC LIPID COMPOUND WITH HIGH EFFICIENCY, LOW TOXICITY AND STABLE EXPRESSION, AND COMPOSITION COMPRISNG SAME” (HANGZHOU TIANLONG PHARMACEUTICAL CO., LTD, priority 2023, published 2026)

Experiments:
[1] = Determination of particle size and polydispersity index (PDI) of lipid nanoparticles by dynamic light scattering; assay type: physicochemical; details: LNP formulation of named cationic lipid/DSPC/cholesterol/DMG-PEG2000 49:10:39.5:1.5; for Particle size (nm): 90° scattering angle, 25° C
Method: The cationic lipids listed in Table 1 were dissolved in ethanol with DSPC (AVT (Shanghai) Pharmaceutical Technology Co., Ltd.), cholesterol (AVT (Shanghai) Pharmaceutical Technology Co., Ltd.) and DMG-PEG2000 according to a molar ratio of 49:10:39.5:1.5, respectively, to prepare lipid solution in ethanol. The lipid solution in ethanol was quickly added to citrate buffer (pH=4 to 5) by ethanol injection method, and vortexed for 30 s for later use. eGFP-mRNA (from Shanghai Biohub International Trade Co., Ltd) or Fluc-mRNA (from Shanghai Biohub International Trade Co., Ltd) was diluted in citrate buffer (pH=4 to 5) to give an aqueous mRNA solution. A certain volume of liposome solution and mRNA aqueous solution were used to prepare liposomes at a weight ratio of total lipids to mRNA of 15:1. The mixtures were sonicated at 25° C. for 15 min (with an ultrasonic frequency of 40 kHz and an ultrasonic power of 800 W). The resulting liposomes were diluted to 10 times volume with PBS, and then ultrafiltered with a 300 KDa ultrafiltration tube to remove ethanol. Then the volume was fixed to a certain volume with PBS to give an LNP formulation encapsulating eGFP-mRNA or Fluc-mRNA using cationic lipid/DSPC/cholesterol/DMG-PEG2000 (49:10:39.5:1.5 in molar percentage).
The particle size and polydispersity index (PDI) were determined by dynamic light scattering using Malvern laser particle size analyzer.
10 μL of the liposome solution was weighed, diluted to 1 mL with RNase-free deionized water, and added to the sample pool. Each sample was measured in triplicate. The measurement conditions were: 90° scattering angle, and 25° C.

[2] = test system: 293T cells; test: Cell survival rate determination (CCK-8); assay type: cell-based; details: for Cell survival rate (%): LNP formulation containing 1.5 μg Fluc-mRNA, 24 hours, CCK-8, absorbance at 450 nm; for cell survival rate lower than that of YK-101: cell survival rate of YK-101 minus that of named substance; for cell survival rate lower than that of YK-107: cell survival rate of YK-107 minus that of named substance; for cell survival rate lower than that of YK-108: cell survival rate of YK-108 minus that of named substance
Method: (§1) Cell recovery and passage: 293T cells were recovered, cultured in a culture dish, and passaged to the required number of cells.
(§2) Seeding plate: The cells in the culture dish were digested and counted. Cells were spread in a 96-well plate at 10,000 cells per well and in a 12-well plate at 150,000 cells per well. Cells were cultured overnight until the cells adhered to the wall.
An LNP formulation containing 1.5 μg of Fluc-mRNA (the cater component of the LNP formulation were cationic lipid, neutral lipid, structured lipid and polymer-conjugated lipid with a molar ratio of 49: 10: 39.5: 1.5, wherein the cationic lipid was listed in Table 1) and the formulation of Lipofectamine 3000 were added to the cell culture medium of a 96-well plate, and further cultivated for 24 hours. 10 μL of CCK-8 solution was then added to each well, and the culture plate was incubated in an incubator for 1 hour. The absorbance at 450 nm was measured by a microplate reader.

[3] = test system: 293T cells; test: Fluorescent detection of Fluc-mRNA (cell transfection efficiency of LNP formulations); assay type: cell-based; details: for Relative light unit (RLU): LNP formulation containing 0.3 μg Fluc-mRNA, 96-well plate, 24 hours; for fluorescence absorption value, times that of HHMA: RLU of named substance / RLU of HHMA; for fluorescence absorption value, times that of Lipofectamine 3000: RLU of named substance / RLU of Lipofectamine 3000; for Ratio relative to SM-102: RLU of named substance / RLU of SM-102; for Fluc-mRNA expression signal intensity, times that of compound 21: RLU of named substance / RLU of compound 21; for fluorescence absorption value, times that of compound 23: RLU of named substance / RLU of compound 23; for difference from SM-102 in Fluc-mRNA fluorescence (GraphPad Prism analysis): statistical comparison with SM-102; for Multiples (YK-107): RLU of YK-107 / RLU of named substance; for Multiples (YK-101): RLU of YK-101 / RLU of named substance; for Multiples (YK-108): RLU of YK-108 / RLU of named substance
Method: as §1, §2
Cell recovery and passage: the method was the same as in Example 3.
Seeding plate: the method was the same as in Example 3.
An LNP formulation containing 0.3 μg of Fluc-mRNA (the carrier components of the LNP formulation were cationic lipid, neutral lipid, structured lipid and polymer-conjugated lipid with a molar ratio of 49:10:39.5:1.5, wherein the cationic lipid was listed in Table 1) was added to the cell culture medium of a 96-well plate, and further incubated for 24 hours. The corresponding reagent was added according to the instructions of the Gaussia Luciferase Assay Kit, and the fluorescence expression intensity of each well was detected by an IVIS fluorescence detection system. This test verified the transfection efficiencies of LNP formulations in cells, see Tables 3-6 for specific test results.

| PDI(%) [1] [%] | Particle size (nm) [1] [nm] | SMILES | Cell survival rate (%) [2] [%] | cell survival rate lower than that of YK-101 [2] [%] | cell survival rate lower than that of YK-107 [2] [%] | cell survival rate lower than that of YK-108 [2] [%] | Relative light unit (RLU) [3] [RLU] | fluorescence absorption value, times that of HHMA [3] [times] | fluorescence absorption value, times that of Lipofectamine 3000 [3] [times] | Ratio relative to SM-102 [3] | Fluc-mRNA expression signal intensity, times that of compound 21 [3] [times] | fluorescence absorption value, times that of compound 23 [3] [times] | difference from SM-102 in Fluc-mRNA fluorescence (GraphPad Prism analysis) [3] | Multiples (YK-107) [3] | cell transfection efficiency, times that of YK-121 [3] [times] | Multiples (YK-101) [3] | Multiples (YK-108) [3] | cell transfection activity, times that of YK-109 [3] [times] |
| --- | --- | --- | --- | --- | --- | --- | --- | --- | --- | --- | --- | --- | --- | --- | --- | --- | --- | --- |
| 14.7 | 216 | CCCCCCCCCCOC(=O)CCCN(CCCCCC(=O)OCC(CCCCCCCC)CCCCCCCC)CCOCCO [YK-124, 2-octyldecyl 6-(4-(decyloxy)-4-oxobutyl)(2-(2-hydroxyethoxy-ethyl)amino)hexanoate] | 77.56 | 12.56 | 12.89 | 12.30 | 81596 | 0.04 | 0.08 | 0.05 | 0.06 | 0.06 | significant difference |  |  |  |  |  |
| 25.1 | 192 | CCCCCCCCCCOC(=O)CCCN(CCCCCC(=O)OCCC(CCCCCC)CCCCCC)CCOCCOCCO [YK-121, 3-hexylnonyl 6-(4-(decyloxy)-4-oxobutyl)(2-(2-(2-hydroxyethoxy)ethoxy-ethyl)amino)hexanoate] | 73.11 | 17.01 | 17.34 | 16.75 | 427603 | 0.21 | 0.40 | 0.28 | 0.31 | 0.33 | significant difference | 52.29 |  |  |  |  |
| 7.7 | 205 | CCCCCCCCCCOC(=O)CCCN(CCCCCC(=O)OCC(CCCCCCCC)CCCCCCCC)CCOCCOCCO [YK-122, 2-octyldecyl 6-(4-(decyloxy)-4-oxobutyl)(2-(2-(2-hydroxyethoxy)ethoxy-ethyl)amino)hexanoate] | 79.15 | 10.97 | 11.30 | 10.71 | 1418705 | 0.69 | 1.32 | 0.92 | 1.02 | 1.10 | no significant difference | 15.76 | 3.3 | 14.33 | 17.38 |  |
| 21.5 | 179 | CCCCCCCCCCOC(=O)CCCCCN(CCO)CCCCCC(=O)OCCC(CCCCCC)CCCCCC [YK-103, 3-hexylnonyl-6-((6-(decyloxy)-6-oxohexyl)(2-hydroxyethyl)amino)hexanoate] | 45.25 | 44.87 | 45.20 | 44.61 | 2312883 |  |  | 1.51 |  |  | no significant difference | 9.67 |  | 8.79 | 10.66 | 3.2 |
| 21.8 | 167 | CCCCCCCCCCOC(=O)CCCN(CCCCCC(=O)OCCC(CCCCCC)CCCCCC)C[C@@H](O)CO [YK-115] | 59.07 | 31.05 | 31.38 | 30.79 | 1427501 | 0.70 | 1.33 | 0.93 | 1.03 | 1.11 |  | 15.66 |  | 14.25 | 17.28 |  |
| 26.4 | 220 | CCCCCCCCCCOC(=O)CCCN(CCCCCC(=O)OCCC(CCCCCC)CCCCCC)CCOC(=O)CCCN(C)C [YK-125] | 35.39 | 54.73 | 55.06 | 54.47 | 169824 | 0.08 | 0.16 | 0.11 | 0.12 | 0.13 | significant difference | 131.67 |  |  |  |  |
| 18.6 | 109 | CCCCCCCCCCOC(=O)CCCN(CCO)CCCCCCOC(=O)CC(CCCCCC)CCCCCC [YK-105] | 78.58 | 11.54 | 11.87 | 11.28 | 1593805 |  |  | 1.04 |  |  | no significant difference | 14.03 |  | 12.76 | 15.47 |  |
